Source: patent EP1484329A1, “Indole derivatives with apoptosis inducing activity” (Zentaris GmbH, priority 2003, dated 2004)
Read-outs that look alike come from different tables or passages of the source.

Tests used:
[1] = biological target: Topoisomerase II (Homo sapiens, UniProt P11388); assay: pRYG relaxation assay for topoisomerase II activity; type: biochemical; conditions: tested at 100, 31.6 and 10 µM
Experimental: Mit diesem Relaxationsassay konnte zusätzlich die inhibitorische Eigenschaft der erfindungsgemäßen Verbindungen auf Topoisomerase II gezeigt werden. Die Testung der erfindungsgemäßen Verbindungen 2 und 4 erfolgte hierbei bei drei unterschiedlichen Konzentrationen (100, 31.6 und 10 µM). Zum Vergleich setzte man die Referenzverbindung m-Amsacrin bei einer Konzentration von 100µM ein.
Zu 1µL vorgelegter Testsubstanz (20fach konzentriert in 100% DMSO) werden 2µL 10x Assay Puffer, 0,5µL pRYG DNA (125ng), 0,5µL human Topoisomerase II (1 unit) und 16µL H2O pipettiert und gemischt. Die Reaktionsansätze werden in den auf 37°C vorgeheizten Heizblock gestellt und 30min bei 37°C inkubiert. Die Inkubation wird nach Zugabe von 4µL 5x Stop Puffer abgestoppt. Danach werden 10µL des Ansatzes auf ein 1,2% Agarosegel mit 0,25µg/mL Ethidiumbromid aufgetragen und 2,5h bei 100V aufgetrennt. Zum Schluß wird das Gel unter UV Anregung fotografiert (s. Graph 3). Die Quantifizierung der Inhibierung der pRYG Relaxation erfolgt mit der GeIPro® Analyzer Software (s. Graph 4). [formula] [formula]

[2] = test system: humanen Xenograft-Modellen; assay: In vivo activity in xenograft models; set-up: species or system human; conditions: Hautkrebs, Nierenzellkarzinom und Brustkrebs
Text: Die in vivo Aktivität der Verbindung 2 wurde an verschiedenen humanen Xenograft-Modellen überprüft.

[3] = type: in vivo, Mäuse (CD-1 Mausstamm); conditions: for Effekte 7 Tage nach Gabe / Effekte 1 h nach Gabe / Effekte 2 h nach Gabe / Effekte 24 h nach Gabe / Temp. (rektal): single dose; for Temp. (rektal): measured 1 hour after application
Experimental: Zur Beurteilung und Abschätzung möglicher Nebenwirkungen (neurodegenerative, phsychotrope Effekte etc.) bzw. toxischer Effekte ausgehend von der Verbindung 2 wurden Mäuse (CD-1 Mausstamm) in einem modifizierten Irwin-Grid Modell bei einmaliger Gabe (5, 10 und 20 mg/kg; p.o.) über eine Zeitdauer von 7 Tagen beobachtet (S. Irwin et al. Psychopharmacologia 1968, 13, 222-257). Die Ergebnisse hierzu werden in nachfolgender Tabelle 7 gezeigt: Tabelle 7: […]

[4] = test system: Salmonella thyphimurium TA100; type: cell-based; conditions: for AMESTA100 mit S9: with rat liver S9; for AMESTA100 ohne S9: without S9
Experimental: (§1) Die Verbindung 2 wurde in einem Fluktuationsassay gegenüber den Mutanten-Stämmen TA98 und TA100 des Bakteriums Salmonella thyphimurium bei drei Konzentrationen (2.5; 5 und 10µM) auf Mutagenität hin untersucht. Die Mutagenitätsuntersuchungen wurden ferner in Gegenwart des Rattenleberenzyms S9 durchgeführt.

[5] = test system: Salmonella thyphimurium TA98; type: cell-based; conditions: for AMES TA98 mit S9: with rat liver S9; for AMES TA98 ohne S9: without S9
Experimental: as §1

[6] = test system: U-937 Zelllinie; assay: CDDplus nucleosome ELISA (apoptosis detection); type: cell-based; conditions: U-937, 0.1-1000nM, 4-24h
Experimental: Zum Nachweis der Nucleosomen Partikel wurde der von der Firma Roche Molecular Biochemicals beschriebene CDD^plus Nucleosomen ELISA Test eingesetzt. Hierzu untersuchte man die Verbindung 2 an der U-937 Zelllinie bei unterschiedlichen Konzentrationen (0.1-1000nM) und bei unterschiedlicher zeitlicher Behandlung (4-24h) (s. Graph 7). [formula]

Topoisomerase II, sequence (P11388 whole entry): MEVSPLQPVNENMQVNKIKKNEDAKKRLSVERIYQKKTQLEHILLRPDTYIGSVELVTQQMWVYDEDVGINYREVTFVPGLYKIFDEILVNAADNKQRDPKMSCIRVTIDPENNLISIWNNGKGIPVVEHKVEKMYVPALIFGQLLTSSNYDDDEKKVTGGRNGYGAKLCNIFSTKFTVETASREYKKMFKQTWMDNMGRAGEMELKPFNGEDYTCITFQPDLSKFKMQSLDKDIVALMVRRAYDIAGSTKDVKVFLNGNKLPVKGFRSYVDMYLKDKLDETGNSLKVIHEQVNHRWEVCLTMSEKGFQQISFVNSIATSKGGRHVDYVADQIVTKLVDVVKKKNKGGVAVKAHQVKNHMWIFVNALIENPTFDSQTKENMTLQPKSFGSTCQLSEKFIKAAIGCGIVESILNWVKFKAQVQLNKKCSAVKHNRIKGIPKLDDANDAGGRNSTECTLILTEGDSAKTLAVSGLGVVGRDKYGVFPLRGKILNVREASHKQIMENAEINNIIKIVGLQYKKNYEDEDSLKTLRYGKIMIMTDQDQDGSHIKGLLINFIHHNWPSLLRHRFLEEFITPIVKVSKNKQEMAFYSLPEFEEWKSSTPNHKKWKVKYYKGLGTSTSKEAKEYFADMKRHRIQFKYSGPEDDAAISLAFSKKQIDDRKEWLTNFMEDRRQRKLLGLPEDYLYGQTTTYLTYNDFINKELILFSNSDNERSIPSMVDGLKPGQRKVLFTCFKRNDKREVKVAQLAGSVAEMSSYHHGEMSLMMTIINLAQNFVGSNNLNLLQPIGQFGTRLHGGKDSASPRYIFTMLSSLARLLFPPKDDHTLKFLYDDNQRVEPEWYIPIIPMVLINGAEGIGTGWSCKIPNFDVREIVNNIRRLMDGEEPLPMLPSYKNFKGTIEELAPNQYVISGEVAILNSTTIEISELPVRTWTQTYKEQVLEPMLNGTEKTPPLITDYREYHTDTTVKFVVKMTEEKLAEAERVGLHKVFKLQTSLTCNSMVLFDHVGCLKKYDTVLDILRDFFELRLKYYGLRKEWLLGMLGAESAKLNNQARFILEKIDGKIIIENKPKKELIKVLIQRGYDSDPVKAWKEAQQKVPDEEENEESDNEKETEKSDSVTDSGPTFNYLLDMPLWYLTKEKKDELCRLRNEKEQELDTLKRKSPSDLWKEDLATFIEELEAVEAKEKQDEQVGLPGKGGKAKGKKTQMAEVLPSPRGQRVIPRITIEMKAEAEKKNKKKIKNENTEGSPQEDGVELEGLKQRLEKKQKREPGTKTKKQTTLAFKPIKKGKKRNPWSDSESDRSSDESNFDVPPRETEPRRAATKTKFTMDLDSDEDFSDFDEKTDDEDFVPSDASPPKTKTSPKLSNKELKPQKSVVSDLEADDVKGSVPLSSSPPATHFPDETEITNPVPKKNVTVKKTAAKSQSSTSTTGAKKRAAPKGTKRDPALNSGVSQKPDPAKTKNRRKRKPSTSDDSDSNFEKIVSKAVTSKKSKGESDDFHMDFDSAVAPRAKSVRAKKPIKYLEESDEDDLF

Compound: O=C(Nc1ccc2ncccc2c1)C(=S)c1cn(Cc2ccc(Cl)cc2)c2ccccc12 [Verbindung 4, 2-[1-(4-Chlorbenzyl)-1 H-indol-3-yl]-N-chinolin-6-yl-2-thioxoacetamid]
- Hemmung der Topoisomerase II (pRYG Relaxationsassay) [1]: signifikante Hemmung der Topoisomerase II

Compound: O=C(Nc1ccc2ncccc2c1)C(=O)c1cn(Cc2ccc(Cl)cc2)c2ccccc12 [Verbindung 2, 2-[1-(4-Chlor-benzyl)-1 H-indol-3-yl]-2-oxo-N-chinolin-6-yl-acetamid]
- Tumorwachstum in Xenograft-Modellen [2]: das Tumorwachstum in verschiedenen Xenograft-Modellen hemmt
- Effekte 7 Tage nach Gabe ([3]; 5 mg/kg p.o.): Kein Effekt
- Effekte 1 h nach Gabe ([3]; 5 mg/kg p.o.): Kein Effekt
- Effekte 2 h nach Gabe ([3]; 5 mg/kg p.o.): Kein Effekt
- Effekte 24 h nach Gabe ([3]; 5 mg/kg p.o.): 2/6 Durchfall
- Temp. (rektal) ([3]; 5 mg/kg p.o.): 37.5 ± 0.2
- Effekte 7 Tage nach Gabe ([3]; 10 mg/kg p.o.): Kein Effekt
- Effekte 1 h nach Gabe ([3]; 10 mg/kg p.o.): 1/6 Aufregung 1/6 Hyperreaktivität 1/6 Reizbarkeit 2/6 Berührungsrea ktivität 1/6 Stimmfähigkeit
- Effekte 2 h nach Gabe ([3]; 10 mg/kg p.o.): 2/6 Schwanzhypert onie 1/6 Hyperreaktivität 1/6 Reizbarkeit 1/6 Berührungsrea ktivität 1/6 Stimmfähigkeit
- Effekte 24 h nach Gabe ([3]; 10 mg/kg p.o.): Kein Effekt
- Temp. (rektal) ([3]; 10 mg/kg p.o.): 37.1 ± 0.1
- Effekte 7 Tage nach Gabe ([3]; 20 mg/kg p.o.): Kein Effekt
- Effekte 1 h nach Gabe ([3]; 20 mg/kg p.o.): Kein Effekt
- Effekte 2 h nach Gabe ([3]; 20 mg/kg p.o.): Kein Effekt
- Effekte 24 h nach Gabe ([3]; 20 mg/kg p.o.): 1/6 Durchfall
- Temp. (rektal) ([3]; 20 mg/kg p.o.): 37.4 ± 0.1
- toxische Effekte im modifizierten Irwin-Grid Test ([3]; single dose 5, 10 and 20mg/kg, overall conclusion): keine toxischen Effekte
- Hemmung der Topoisomerase II (pRYG Relaxationsassay) [1]: signifikante Hemmung der Topoisomerase II
- AMESTA100 mit S9 ([4]; 2.5 µM): inaktiv
- AMESTA100 ohne S9 ([4]; 2.5 µM): inaktiv
- AMESTA100 mit S9 ([4]; 5 µM): inaktiv
- AMESTA100 ohne S9 ([4]; 5 µM): inaktiv
- AMESTA100 mit S9 ([4]; 10 µM): inaktiv
- AMESTA100 ohne S9 ([4]; 10 µM): inaktiv
- AMES TA98 mit S9 ([5]; 2.5 µM): inaktiv
- AMES TA98 ohne S9 ([5]; 2.5 µM): inaktiv
- AMES TA98 mit S9 ([5]; 5 µM): inaktiv
- AMES TA98 ohne S9 ([5]; 5 µM): inaktiv
- AMES TA98 mit S9 ([5]; 10 µM): inaktiv
- AMES TA98 ohne S9 ([5]; 10 µM): inaktiv
- Nucleosomen im Zelllysat ([6]; cell lysate): konzentrations- und zeitabhängiger Anstieg von Nucleosomen im Zelllysat
- Nucleosomen im Zellkulturüberstand ([6]; culture supernatant): kein signifikanter Anstieg
